ChEMBL document CHEMBL3885861, “Open TG-GATES”

Species: Rattus norvegicus
Experiment: Open TG-GATES - Regimen: Single
Format: toxicity, organism-based, Sprague-Dawley
Parameters: regimen Single, gender Male, age 6 weeks
Settings: in vivo, po, 2000 mg/kg, route gavage, dose level High; for APTT / Bas / Eos / Fbg / Hb / Ht / Lym / MCH / MCHC / MCV / Mono / Neu / PT / Plat / RBC / Ret / WBC: tissue Blood; for KIDNEY_L / KIDNEY_R / KIDNEY_TOTAL: tissue Kidney; for LIVER: tissue Liver; for A/G / ALP / ALT / AST / BUN / CRE / Ca / Cl / DBIL / GLC / IP / K / LDH / Na / PL / RALB / TBIL / TC / TG / TP / gamma-GTP: tissue Plasma

CCN1CCCC1CNC(=O)c1cc(S(N)(=O)=O)ccc1OC (stereo unspecified) [SULPIRIDE]
TERMINAL_BW (9 h): 199.2 g
APTT (9 h): 19.7 s
Bas (9 h): 0%
Eos (9 h): 1%
Fbg (9 h): 296.6 mg/dL
Hb (9 h): 13.3 g/dL
Ht (9 h): 41.7%
Lym (9 h): 79.6%
MCH (9 h): 20.1 pg
MCHC (9 h): 32%
MCV (9 h): 62.9 fL
Mono (9 h): 2.2%
Neu (9 h): 16.6%
PT (9 h): 13.2 s
Plat (9 h): 117.3 x10_4/uL
RBC (9 h): 663.8 x10_4/ul
Ret (9 h): 7.5%
WBC (9 h): 63.8 x10_2/uL
KIDNEY_L (9 h): 0.9 g
KIDNEY_R (9 h): 0.9 g
KIDNEY_TOTAL (9 h): 1.8 g
LIVER (9 h): 7.5 g
A/G (9 h): 0.9
ALP (9 h): 1349.6 IU/L
ALT (9 h): 30.8 IU/L
AST (9 h): 67.4 IU/L
BUN (9 h): 7.4 mg/dL
CRE (9 h): 0.1 mg/dL
Ca (9 h): 10.5 mg/dL
Cl (9 h): 108.4 meq/L
DBIL (9 h): 0.008 mg/dL
GLC (9 h): 165.6 mg/dL
IP (9 h): 10.1 mg/dL
K (9 h): 4.3 meq/L
LDH (9 h): 88.2 IU/L
Na (9 h): 142 meq/L
PL (9 h): 133.8 mg/dL
RALB (9 h): 2.5 g/dL
TBIL (9 h): 0.076 mg/dL
TC (9 h): 73 mg/dL
TG (9 h): 29 mg/dL
TP (9 h): 5.3 g/dL
gamma-GTP (9 h): 1.6 IU/L
TERMINAL_BW (24 h): 209.1 g
APTT (24 h): 16.6 s
Bas (24 h): 0.2%
Eos (24 h): 0.8%
Fbg (24 h): 301.4 mg/dL
Hb (24 h): 13.8 g/dL
Ht (24 h): 42.8%
Lym (24 h): 79.2%
MCH (24 h): 20.4 pg
MCHC (24 h): 32.3%
MCV (24 h): 63.2 fL
Mono (24 h): 3.6%
Neu (24 h): 15.4%
PT (24 h): 12.7 s
Plat (24 h): 120.6 x10_4/uL
RBC (24 h): 678.6 x10_4/ul
Ret (24 h): 7%
WBC (24 h): 97.3 x10_2/uL
KIDNEY_L (24 h): 0.9 g
KIDNEY_R (24 h): 0.9 g
KIDNEY_TOTAL (24 h): 1.9 g
LIVER (24 h): 9 g
A/G (24 h): 0.9
ALP (24 h): 1595.2 IU/L
ALT (24 h): 40.6 IU/L
AST (24 h): 64.8 IU/L
BUN (24 h): 17.4 mg/dL
CRE (24 h): 0.2 mg/dL
Ca (24 h): 11.3 mg/dL
Cl (24 h): 103.8 meq/L
DBIL (24 h): 0.012 mg/dL
GLC (24 h): 179.8 mg/dL
IP (24 h): 9.3 mg/dL
K (24 h): 4.8 meq/L
LDH (24 h): 101 IU/L
Na (24 h): 141.4 meq/L
PL (24 h): 149.8 mg/dL
RALB (24 h): 2.7 g/dL
TBIL (24 h): 0.064 mg/dL
TC (24 h): 86.2 mg/dL
TG (24 h): 77 mg/dL
TP (24 h): 5.7 g/dL
gamma-GTP (24 h): 1 IU/L
